According to ChEMBL document CHEMBL3045199, “Synthesis of some (E)-6-[2-(furan-2-yl)ethenyl]-1,2,4-triazin-5-ones and their biological evaluation as antitumor agents” (2013):

Experiments:
Type in all cases: functional
[1] = system: RXF 393; assay: Cytotoxicity against Homo sapiens (human) RXF393 cells assessed as growth inhibition at 10 uM after 24 hr; details: RXF 393, 24 h, read-out: GI
[2] = system: MDA-MB-468; assay: Cytotoxicity against Homo sapiens (human) MDA-MB-468 cells assessed as growth inhibition at 10 uM after 24 hr; details: MDA-MB-468, 24 h, read-out: GI
[3] = system: SK-MEL-2; assay: Cytotoxicity against Homo sapiens (human) SK-MEL-2 cells assessed as growth inhibition at 10 uM after 24 hr; details: SK-MEL-2, 24 h, read-out: GI
[4] = system: T47D; assay: Cytotoxicity against Homo sapiens (human) T47D cells assessed as growth inhibition at 10 uM after 24 hr; details: read-out: GI
[5] = system: UO-31; assay: Cytotoxicity against Homo sapiens (human) UO31 cells assessed as growth inhibition at 10 uM after 24 hr; details: UO-31, 24 h, read-out: GI
[6] = system: MCF7; assay: Cytotoxicity against Homo sapiens (human) MCF7 cells assessed as growth inhibition at 10 uM after 24 hr; details: MCF7, 24 h, read-out: GI
[7] = system: IGROV-1; assay: Cytotoxicity against Homo sapiens (human) IGROV1 cells assessed as growth inhibition at 10 uM after 24 hr; details: IGROV-1, 24 h, read-out: GI
[8] = system: HL-60(TB); assay: Cytotoxicity against Homo sapiens (human) HL-60(TB) cells assessed as growth inhibition at 10 uM after 24 hr; details: HL-60, 24 h, read-out: GI
[9] = system: OVCAR-8; assay: Cytotoxicity against Homo sapiens (human) OVCAR8 cells assessed as growth inhibition at 10 uM after 24 hr; details: OVCAR-8, 24 h, read-out: GI

`O=C(CSc1nc(=O)c(/C=C/c2ccco2)n[nH]1)c1ccc(Cl)cc1` was tested, and the inhibition of growth at 10 µM [1] was 62.5%, the inhibition of growth at 10 µM [2] was 57.3% and the inhibition of growth at 10 µM [3] was 42.3%. It also gave an inhibition of growth at 10 µM [4] of 38.3%, an inhibition of growth at 10 µM [5] of 33.3% and an inhibition of growth at 10 µM [6] of 80.8%. The inhibition of growth at 10 µM [7] was 80.4%.
With `O=C1CC(=O)N(c2nc(=O)c(/C=C/c3ccco3)n[nH]2)N1` the inhibition of growth at 10 µM [8] was 54.3%.
With `Nn1c(=S)[nH]nc(/C=C/c2ccco2)c1=O` the inhibition of growth at 10 µM [3] was 70.7%, the inhibition of growth at 10 µM [6] was 72.7% and the inhibition of growth at 10 µM [7] was 77%. It also gave an inhibition of growth at 10 µM [9] of 59.1%.
With `O=c1c(/C=C/c2ccco2)n[nH]c(=S)n1/N=C/c1ccc([N+](=O)[O-])cc1` the inhibition of growth at 10 µM [3] was 70.3%, the inhibition of growth at 10 µM [6] was 73.1% and the inhibition of growth at 10 µM [7] was 75.6%. It also gave an inhibition of growth at 10 µM [9] of 47.8%.
